Data as given in ChEMBL document CHEMBL3399967, “Design and discovery of 2-oxochromene derivatives as liver X receptor β-selective agonists” (Bioorg Med Chem Lett, 2015).

Key:
[1] = target: T1, Oxysterols receptor LXR-alpha (Homo sapiens, UniProt Q13133); test: Agonist activity at Gal4-tagged LXRalpha (unknown origin) expressed in CHOK1 cells after 24 hrs by luciferase reporter gene assay; type: cell-based, CHO-K1
T1 sequence (Q13133 whole entry): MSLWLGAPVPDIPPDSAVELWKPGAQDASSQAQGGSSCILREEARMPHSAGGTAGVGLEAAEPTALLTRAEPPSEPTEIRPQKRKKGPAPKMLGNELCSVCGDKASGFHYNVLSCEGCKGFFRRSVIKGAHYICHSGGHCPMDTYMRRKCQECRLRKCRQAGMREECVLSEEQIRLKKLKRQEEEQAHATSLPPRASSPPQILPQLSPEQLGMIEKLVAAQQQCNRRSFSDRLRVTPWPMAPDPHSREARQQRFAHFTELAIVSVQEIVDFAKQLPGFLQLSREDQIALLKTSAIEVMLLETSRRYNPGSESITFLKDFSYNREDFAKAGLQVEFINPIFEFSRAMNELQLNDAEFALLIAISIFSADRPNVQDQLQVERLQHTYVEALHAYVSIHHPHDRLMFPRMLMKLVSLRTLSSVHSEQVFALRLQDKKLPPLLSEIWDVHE

[2] = target: T2, Oxysterols receptor LXR-beta (Homo sapiens, UniProt P55055); test: Agonist activity at Gal4-tagged LXRbeta (unknown origin) expressed in CHOK1 cells after 24 hrs by luciferase reporter gene assay; type: cell-based, CHO-K1
T2 sequence (P55055 whole entry): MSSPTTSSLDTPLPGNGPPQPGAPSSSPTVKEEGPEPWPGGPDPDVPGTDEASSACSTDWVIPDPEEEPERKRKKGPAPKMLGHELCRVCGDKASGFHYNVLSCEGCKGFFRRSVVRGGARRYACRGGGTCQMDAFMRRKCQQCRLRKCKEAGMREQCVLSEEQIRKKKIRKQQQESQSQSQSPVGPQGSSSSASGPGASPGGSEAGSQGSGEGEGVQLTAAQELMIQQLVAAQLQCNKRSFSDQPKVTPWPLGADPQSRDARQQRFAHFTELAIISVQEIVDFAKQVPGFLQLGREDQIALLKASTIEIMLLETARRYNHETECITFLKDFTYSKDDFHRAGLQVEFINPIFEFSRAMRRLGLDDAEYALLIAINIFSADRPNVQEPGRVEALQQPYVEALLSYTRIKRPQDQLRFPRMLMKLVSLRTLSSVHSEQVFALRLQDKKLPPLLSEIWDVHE

HepG2 [3] = test: Induction of ABCA1 mRNA expression in human HepG2 cells at 5 uM relative to control; type: functional
HepG2 [4] = test: Ratio of induction of ABCA1 mRNA expression to SREBP-1c mRNA expression in human HepG2 cells at 5 uM; type: functional
HepG2 [5] = test: Induction of SREBP-1c mRNA expression in human HepG2 cells at 5 uM relative to control; type: functional

Row | SMILES | EC50 ([1]; cho-k1) | EC50 ([2]; read-out: EC50) | also measured
1 | CCCc1cc2c(C(F)(F)F)cc(=O)oc2c(CCC)c1OCCCCN1C(=O)NC(C)(c2ccc(C(F)(F)F)cc2)C1=O (stereo not given) | Not Active | – | –
2 | CCCc1c(OCCCCN2C(=O)NC(C)(c3ccccc3)C2=O)ccc2c(C(F)(F)F)cc(=O)oc12 (stereo not given) | Not Active | 2000 nM | –
3 | CCCc1c(OCCCCN2C(=O)CN(C)C2=O)ccc2c(C(F)(F)F)cc(=O)oc12 | – | 1300 nM | –
4 | CCCc1c(OCCCCN2C(=O)NC(C)(c3ccc(OC)c(OC)c3)C2=O)ccc2c(C(F)(F)F)cc(=O)oc12 (stereo not given) | Not Active | 3000 nM | –
5 | CCCc1cc2c(C(F)(F)F)cc(=O)oc2c(CCC)c1OCCCCN1C(=O)C(C)N(C)C1=O (stereo not given) | – | 1300 nM | EC50 ([1]; read-out: EC50): 1700 nM
6 | CCCc1c(OCCCN2C(=O)CSC2=O)ccc2c(C(F)(F)F)noc12 | – | 690 nM | EC50 ([1]; read-out: EC50): 1300 nM
7 | CCCc1cc2c(C(F)(F)F)cc(=O)oc2c(CCC)c1OCCCCN1C(=O)NC(C)(c2ccc(OC)cc2)C1=O (stereo not given) | Not Active | 960 nM | –
8 | CCCc1cc2c(C(F)(F)F)cc(=O)oc2c(CCC)c1OCCCCN1C(=O)CN(C)C1=O | – | 1300 nM | EC50 ([1]; read-out: EC50): 2600 nM
9 | CCCc1cc2c(C(F)(F)F)cc(=O)oc2c(CCC)c1OCCCCN1C(=O)NC(C)(c2ccc(C)cc2)C1=O (stereo not given) | Not Active | 2400 nM | –
10 | O=C(O)Cc1cccc(OCCCN(Cc2cccc(C(F)(F)F)c2Cl)CC(c2ccccc2)c2ccccc2)c1 | – | 420 nM | fold change (FC) (HepG2 [3]): 15; EC50 ([1]; read-out: EC50): 1300 nM; Ratio (HepG2 [4]): 3.1; fold change (FC) (HepG2 [5]): 4.9
11 | CCCc1cc2c(C(F)(F)F)cc(=O)oc2c(CCC)c1OCCCCN1C(=O)NC(C)(c2ccc3c(c2)OCO3)C1=O (stereo not given) | – | 1200 nM | –
12 | CCCc1cc2c(C(F)(F)F)cc(=O)oc2c(CCC)c1OCCCCN1C(=O)NC(C)(c2ccccc2)C1=O (stereo not given) | Not Active | 5300 nM | –
13 | CCCc1cc2c(C(F)(F)F)cc(=O)oc2c(CCC)c1OCCCCN1CCCC1=O | Not Active | – | EC50 ([2]; cho-k1): Not Active
14 | CCCc1cc2c(C(F)(F)F)cc(=O)oc2c(CCC)c1OCCCCN1C(=O)CSC1=O | – | 1400 nM | EC50 ([1]; read-out: EC50): 2600 nM
15 | O=c1cc(C(F)(F)F)c2cc3c4c(c2o1)CCCN4CCC3 | – | – | fold change (FC) (HepG2 [3]): 9.1; Ratio (HepG2 [4]): 2.3; fold change (FC) (HepG2 [5]): 3.9
16 | CCCc1cc2c(C(F)(F)F)cc(=O)oc2c(CCC)c1OCCCCN1C(=O)NC(C)(c2ccc([N+](=O)[O-])cc2)C1=O (stereo not given) | Not Active | 8000 nM | –
17 | CCCc1cc2c(C(F)(F)F)cc(=O)oc2c(CCC)c1OCCCCN1C(=O)NC(C)(c2ccccc2OC)C1=O (stereo not given) | Not Active | – | EC50 ([2]; cho-k1): Not Active
